# Measured values from PubChem BioAssay (NCI).
#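 Step 1: Grow cells in 96-well plates. Step 2: Expose to compound for 48 hours at 5 concentrations. Step 3: Interpolate endpoints linearly; if unreached, use highest concentration. GI50: concentration for 50% inhibition of growth. At the TGI there is no net growth.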
# Assays:
# Experiment in all cases: inhibition of tumour cell growth, NCI panel, 48 h
# A498 renal = tested on: A498 renal
# NCI-H23 lung = tested on: NCI-H23 lung
# HS 578T breast = tested on: HS 578T breast
# NCI-H460 lung = tested on: NCI-H460 lung
# HCT-15 colon = tested on: HCT-15 colon
# MDA-MB-231 breast = tested on: MDA-MB-231 breast
# 786-0 renal = tested on: 786-0 renal
# SR leukemia = tested on: SR leukemia
# MOLT-4 leukemia = tested on: MOLT-4 leukemia
# MDA-MB-435 = tested on: MDA-MB-435
SMILES,GI50 (A498 renal),TGI (A498 renal),GI50 (NCI-H23 lung),TGI (NCI-H23 lung),GI50 (HS 578T breast),TGI (HS 578T breast),GI50 (NCI-H460 lung),TGI (NCI-H460 lung),GI50 (HCT-15 colon),TGI (HCT-15 colon),GI50 (MDA-MB-231 breast),TGI (MDA-MB-231 breast),GI50 (786-0 renal),TGI (786-0 renal),GI50 (SR leukemia),TGI (SR leukemia),GI50 (MOLT-4 leukemia),TGI (MOLT-4 leukemia),GI50 (MDA-MB-435),TGI (MDA-MB-435)
CC(=O)[O][Hg][c]1c(C)c(C)cc(C)c1C,2.09 µM,4.38 µM,1.03 µM,3.32 µM,0.708 µM,4.02 µM,0.739 µM,3.09 µM,1.49 µM,3.88 µM,0.87 µM,2.33 µM,1.76 µM,3.28 µM,0.0629 µM,2.21 µM,0.242 µM,4.54 µM,1.27 µM,2.74 µM
Cc1cc(Cl)nc(N(CCCNc2ccnc3cc(Cl)ccc23)Cc2ccco2)n1,1.55 µM,7.99 µM,1.98 µM,7.68 µM,2.13 µM,8.1 µM,2.04 µM,6.2 µM,1.99 µM,7.61 µM,2.13 µM,5.93 µM,1.91 µM,4.61 µM,1.65 µM,4.49 µM,1.93 µM,6.46 µM,2.31 µM,7.17 µM
COc1nnc2ccc(N3CCC(c4ccc(OCCN5CCN(C)C(=O)[C@H]5C)cc4)CC3)nn12,0.0813 µM,3.06 µM,0.356 µM,> 100 µM,0.0419 µM,> 62.7 µM,0.373 µM,> 100 µM,0.0869 µM,> 100 µM,0.0751 µM,> 100 µM,0.186 µM,> 100 µM,0.0198 µM,> 100 µM,0.328 µM,> 100 µM,0.0569 µM,> 100 µM
O=[N+]([O-])c1cccc(C2CC(c3ccccc3)=Nc3ccccc3S2)c1 (stereo unspecified),14.7 µM,95.8 µM,17.9 µM,61.8 µM,20 µM,> 100 µM,20.5 µM,48.7 µM,4.84 µM,18.7 µM,12.9 µM,33.6 µM,17.3 µM,31.6 µM,3.4 µM,> 100 µM,7.44 µM,> 100 µM,15.7 µM,37.7 µM
O=C(CN1C(=O)S/C(=C\C(Cl)=C\c2ccccc2)C1=O)NC1C=CS(=O)(=O)C1 (stereo unspecified),1.42 µM,4 µM,2.09 µM,7.17 µM,2.33 µM,8.33 µM,1.86 µM,6.36 µM,0.378 µM,3.47 µM,1.44 µM,4.15 µM,1.8 µM,4.37 µM,0.29 µM,> 100 µM,0.621 µM,> 100 µM,1.55 µM,3.41 µM
C=C1C(=O)OC2/C=C(/C)C(OC(C)=O)C/C=C(\C)C(OC(=O)C3(C)OC3C)C(O)C12 (stereo unspecified),,> 100 µM,,> 100 µM,,> 100 µM,,> 100 µM,,> 100 µM,,> 100 µM,,> 100 µM,,> 100 µM,,> 100 µM,,> 100 µM
CCOC(=O)c1cnc2c(C)cccc2c1Nc1ccc(C(C)=O)cc1,11.9 µM,63.4 µM,28.5 µM,> 100 µM,15.4 µM,58.4 µM,59.3 µM,> 100 µM,20.7 µM,> 100 µM,19.7 µM,> 100 µM,16.9 µM,42.3 µM,60.8 µM,> 100 µM,43.6 µM,> 100 µM,> 100 µM,> 100 µM
N#CC1c2ccccc2C=CN1C(=O)N(c1ccccc1)c1ccccc1 (stereo unspecified),7.14 µM,24.4 µM,4.09 µM,19.3 µM,3.14 µM,13.7 µM,15.9 µM,34.2 µM,2.51 µM,6.93 µM,2.94 µM,8.35 µM,4.32 µM,15.2 µM,2.14 µM,6.32 µM,2.44 µM,7.45 µM,1.74 µM,3.81 µM
C#CCOc1ccc2ncnc(Nc3ccc(NC(=O)C=C)cc3)c2c1,> 100 µM,> 100 µM,> 100 µM,> 100 µM,62 µM,> 100 µM,> 100 µM,> 100 µM,19.2 µM,> 100 µM,29 µM,> 100 µM,11.9 µM,38.2 µM,3.47 µM,57.4 µM,28.4 µM,> 100 µM,36.2 µM,> 100 µM
COc1ccc(N=N/C(C(=O)C(F)(F)F)=C(\O)c2ccc(Cl)cc2)cc1,10.9 µM,23.8 µM,11 µM,54.4 µM,11.2 µM,76.2 µM,3.77 µM,27.7 µM,4.68 µM,> 100 µM,9.11 µM,66.9 µM,6.63 µM,83.6 µM,4.26 µM,24.7 µM,5.09 µM,53 µM,2.49 µM,8.77 µM
CCc1nc(N)nc(N)c1-c1ccc(N2CCNCC2)cc1,,> 100 µM,,> 97.3 µM,,> 100 µM,,> 100 µM,,> 100 µM,,> 100 µM,,> 100 µM,,> 66.9 µM,,> 91.8 µM,,> 100 µM
CC[n+]1c(/C=C/C=C2\N(C)c3ccccc3C2(C)C)sc2ccccc21,5.04 µM,12 µM,2.75 µM,7.09 µM,5.63 µM,20.1 µM,4.5 µM,8.93 µM,4.54 µM,9.67 µM,4.5 µM,10.3 µM,4.33 µM,8.38 µM,3.32 µM,9.32 µM,4.44 µM,11.6 µM,3.98 µM,7.66 µM
CO[C@H]1C[C@@H]2CC[C@@H](C)[C@@](O)(O2)C(=O)C(=O)N2CCCC[C@H]2C(=O)O[C@H]([C@H](C)C[C@@H]2CC[C@@H](OCCO)[C@H](OC)C2)CC(=O)[C@H](C)C=C(C)[C@@H](O)[C@@H](OC)C(=O)[C@H](C)C[C@H](C)/C=C/C=C/C=C1C,< 0.01 µM,16.3 µM,,22.7 µM,< 0.01 µM,,,19.4 µM,< 0.0115 µM,18.5 µM,11.6 µM,35.4 µM,< 0.01 µM,20.7 µM,< 0.01 µM,10.2 µM,,20.3 µM,< 0.0332 µM,22.1 µM
